Laboratory results reported in BindingDB's records for doi:10.1016/j.bmcl.2011.01.079 (The Scripps Research Institute, 2011).
pIC50: −log10 of the molar value.

Biological target: Transcription factor Jun (Homo sapiens, UniProt P05412)
Assay: Inhibition of c-Jun

Chain of Transcription factor Jun (P05412 whole entry): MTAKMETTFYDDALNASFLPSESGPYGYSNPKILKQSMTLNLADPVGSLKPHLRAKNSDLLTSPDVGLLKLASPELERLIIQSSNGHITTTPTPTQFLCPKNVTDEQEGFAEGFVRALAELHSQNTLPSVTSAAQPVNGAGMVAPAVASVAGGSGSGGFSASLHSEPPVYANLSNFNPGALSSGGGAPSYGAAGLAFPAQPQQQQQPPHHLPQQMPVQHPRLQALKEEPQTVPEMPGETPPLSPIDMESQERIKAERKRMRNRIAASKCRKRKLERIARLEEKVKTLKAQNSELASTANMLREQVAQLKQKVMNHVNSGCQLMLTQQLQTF

pIC50	Structure (SMILES)
7.40	Cn1cc(-c2ccc3cnc(Nc4ccc(-n5cnc(N6CCOCC6)n5)cc4)nc3c2-c2cnn(C)c2)cn1 [7,8-bis(1-methyl-1H-pyrazol-4-yl)-N-(4-(3-morpholino-1H-1,2,4-triazol-1-yl)phenyl)quinazolin-2-amine]
7.40	Cn1cc(-c2ccc3cnc(Nc4ccc(-n5cnc(N6CCOCC6)n5)cc4)nc3c2-c2ccccc2)cn1 [7-(1-methyl-1H-pyrazol-4-yl)-N-(4-(3-morpholino-1H-1,2,4-triazol-1-yl)phenyl)-8-phenylquinazolin-2-amine]
6.48	Cn1cc(-c2cccc3cnc(Nc4ccc(-n5cnc(N6CCOCC6)n5)cc4)nc23)cn1 [8-(1-methyl-1H-pyrazol-4-yl)-N-(4-(3-morpholino-1H-1,2,4-triazol-1-yl)phenyl)quinazolin-2-amine]
6.30	COc1ccc(-c2cccc3cnc(Nc4ccc(-n5cnc(C)n5)cc4)nc23)cc1F [8-(3-fluoro-4-methoxyphenyl)-N-(4-(3-methyl-1H-1,2,4-triazol-1-yl)phenyl)quinazolin-2-amine]
6.21	CC(C)n1cc(-c2ccc3cnc(Nc4ccc(-n5cnc(N6CCOCC6)n5)cc4)nc3c2Cl)cn1 [8-chloro-7-(1-isopropyl-1H-pyrazol-4-yl)-N-(4-(3-morpholino-1H-1,2,4-triazol-1-yl)phenyl)quinazolin-2-amine]
6.89	Cn1cc(-c2ccc3cnc(Nc4ccc(-n5cnc(N6CCOCC6)n5)cc4)nc3c2C2CC2)cn1 [8-cyclopropyl-7-(1-methyl-1H-pyrazol-4-yl)-N-(4-(3-morpholino-1H-1,2,4-triazol-1-yl)phenyl)quinazolin-2-amine]
7.30	COc1c(-c2cnn(C)c2)ccc2cnc(Nc3ccc(-n4cnc(N5CCOCC5)n4)cc3)nc12 [8-methoxy-7-(1-methyl-1H-pyrazol-4-yl)-N-(4-(3-morpholino-1H-1,2,4-triazol-1-yl)phenyl)quinazolin-2-amine]
6.80	Cc1c(-c2cnn(C)c2)ccc2cnc(Nc3ccc(-n4cnc(N5CCOCC5)n4)cc3)nc12 [8-methyl-7-(1-methyl-1H-pyrazol-4-yl)-N-(4-(3-morpholino-1H-1,2,4-triazol-1-yl)phenyl)quinazolin-2-amine]
6.70	Cc1ncn(-c2ccc(Nc3ncc4cccc(-c5nccs5)c4n3)cc2)n1 [N-(4-(3-methyl-1H-1,2,4-triazol-1-yl)phenyl)-8-(thiazol-2-yl)quinazolin-2-amine]
6.92	c1cc(-n2cnc(N3CCOCC3)n2)ccc1Nc1ncc2ccc(-c3cn[nH]c3)cc2n1 [N-(4-(3-morpholino-1H-1,2,4-triazol-1-yl)phenyl)-7-(1H-pyrazol-4-yl)quinazolin-2-amine]
6.20	Cc1ccc(-c2cccc3cnc(Nc4ccc5c(c4)OCO5)nc23)cn1 [N-(benzo[d][1,3]dioxol-5-yl)-8-(6-methylpyridin-3-yl)quinazolin-2-amine]

The next lines start with the compound.

Structure (SMILES)	pIC50
Cc1ccc(-c2cccc3cnc(NC4CCC(O)CC4)nc23)cn1 (stereo unspecified) [4-(8-(6-methylpyridin-3-yl)quinazolin-2-ylamino)cyclohexanol]	6.03
Cn1cc(-c2ccc3cnc(Nc4ccc(-n5cnc(-c6ccccn6)n5)cc4)nc3c2)cn1 [7-(1-methyl-1H-pyrazol-4-yl)-N-(4-(3-(pyridin-2-yl)-1H-1,2,4-triazol-1-yl)phenyl)quinazolin-2-amine]	6.54
Cn1cc(-c2ccc3cnc(Nc4ccc(-n5cnc(N6CCOCC6)n5)cc4)nc3c2)cn1 [7-(1-methyl-1H-pyrazol-4-yl)-N-(4-(3-morpholino-1H-1,2,4-triazol-1-yl)phenyl)quinazolin-2-amine]	6.51
COc1ccc(-c2cccc3cnc(Nc4ccc(-n5cnc(-c6ccccn6)n5)cc4)nc23)cc1F [8-(3-fluoro-4-methoxyphenyl)-N-(4-(3-(pyridin-2-yl)-1H-1,2,4-triazol-1-yl)phenyl)quinazolin-2-amine]	5.29
COc1ccc(-c2cccc3cnc(Nc4ccc(-n5cnc(N6CCOCC6)n5)cc4)nc23)cc1F [8-(3-fluoro-4-methoxyphenyl)-N-(4-(3-morpholino-1H-1,2,4-triazol-1-yl)phenyl)quinazolin-2-amine]	6.60
Cn1cc(-c2ccc3cnc(Nc4ccc(-n5cnc(N6CCOCC6)n5)cc4)nc3c2Cl)cn1 [8-chloro-7-(1-methyl-1H-pyrazol-4-yl)-N-(4-(3-morpholino-1H-1,2,4-triazol-1-yl)phenyl)quinazolin-2-amine]	7.00
Cc1ccc(-c2cccc3cnc(N[C@H]4CC[C@@H](C(=O)N5CCCC5)CC4)nc23)cn1 [((cis)-4-(8-(6-methylpyridin-3-yl)quinazolin-2-ylamino)cyclohexyl)(pyrrolidin-1-yl)methanone]	5.52
Cc1ccc(-c2ncn(-c3ccc(Nc4ncc5ccc(-c6cn[nH]c6)cc5n4)cc3)n2)cn1 [N-(4-(3-(6-methylpyridin-3-yl)-1H-1,2,4-triazol-1-yl)phenyl)-7-(1H-pyrazol-4-yl)quinazolin-2-amine]	7.40
c1cc(-c2nccs2)c2nc(Nc3ccc(-n4cnc(N5CCOCC5)n4)cc3)ncc2c1 [N-(4-(3-morpholino-1H-1,2,4-triazol-1-yl)phenyl)-8-(thiazol-2-yl)quinazolin-2-amine]	5.52
c1ccc(-c2cccc3cnc(Nc4ccc(-n5cnc(N6CCOCC6)n5)cc4)nc23)cc1 [N-(4-(3-morpholino-1H-1,2,4-triazol-1-yl)phenyl)-8-phenylquinazolin-2-amine]	5.85
